Measurements reported in ChEMBL document CHEMBL3351515, “α-Hexylcinnamaldehyde inhibits the genotoxicity of environmental pollutants in the bacterial reverse mutation assay” (2014).

Assays:
[1] = tested on: Salmonella typhimurium; test: Antimutagenic activity against sodium azide-induced revertant colonies in Salmonella typhimurium TA100 assessed as number of revertant colonies measured pretreatment at 90 uM (reference value: 1968 +/- 46.9) in absence of mammalian S9 fraction; format: functional, Salmonella enterica subsp. enterica serovar Typhimurium
[2] = tested on: Salmonella typhimurium; test: Antimutagenic activity against sodium azide-induced revertant colonies in Salmonella typhimurium TA100 assessed as number of revertant colonies measured post-treatment at 90 uM (reference value: 1909 +/- 29.7) in absence of mammalian S9 fraction; format: functional, Salmonella enterica subsp. enterica serovar Typhimurium
[3] = tested on: Salmonella typhimurium; test: Antimutagenic activity against 1-nitropyrene-induced revertant colonies in Salmonella typhimurium TA98 assessed as inhibition of mutagenicity measured at 900 uM; format: functional, Salmonella enterica subsp. enterica serovar Typhimurium; conditions: Salmonella enterica
[4] = tested on: Escherichia coli; test: Antimutagenic activity against methyl methansulfonate-induced revertant colonies in Escherichia coli WP2uvrA assessed as number of revertant colonies measured post-treatment at 900 uM (reference value: 726.7 +/- 12.7) in absence of mammalian S9 fraction; format: functional
[5] = tested on: Salmonella typhimurium; test: Antimutagenic activity against 2-aminoanthracene-induced revertant colonies in Salmonella typhimurium TA100 assessed as number of revertant colonies measured cotreatment at 90 uM (reference value: 457.9 +/- 16.74) in presence of mammalian S9 fraction; format: functional, Salmonella enterica subsp. enterica serovar Typhimurium
[6] = tested on: Escherichia coli; test: Antimutagenic activity against 2-aminoanthracene-induced revertant colonies in Escherichia coli WP2uvrA assessed as number of revertant colonies measured pretreatment at 9 uM (reference value: 178.7 +/- 11.8) in presence of mammalian S9 fraction; format: functional
[7] = tested on: Salmonella typhimurium; test: Antimutagenic activity against 2-aminoanthracene-induced revertant colonies in Salmonella typhimurium TA100 assessed as number of revertant colonies measured pretreatment at 9 uM (reference value: 481.3 +/- 5.3) in presence of mammalian S9 fraction; format: functional, Salmonella enterica subsp. enterica serovar Typhimurium
[8] = tested on: Salmonella typhimurium; test: Antimutagenic activity against 2-aminoanthracene-induced revertant colonies in Salmonella typhimurium TA100 assessed as number of revertant colonies measured post-treatment at 18 uM (reference value: 642.7 +/- 2.7) in presence of mammalian S9 fraction; format: functional, Salmonella enterica subsp. enterica serovar Typhimurium
[9] = tested on: Salmonella typhimurium; test: Antimutagenic activity against sodium azide-induced revertant colonies in Salmonella typhimurium TA100 assessed as number of revertant colonies measured cotreatment at 180 uM (reference value: 1588 +/- 55.6) in absence of mammalian S9 fraction; format: functional, Salmonella enterica subsp. enterica serovar Typhimurium
[10] = tested on: Escherichia coli; test: Antimutagenic activity against methyl methansulfonate-induced revertant colonies in Escherichia coli WP2uvrA assessed as number of revertant colonies measured cotreatment at 18 uM (reference value: 485.3 +/- 17.5) in absence of mammalian S9 fraction; format: functional
[11] = tested on: Escherichia coli; test: Antimutagenic activity against methyl methansulfonate-induced revertant colonies in Escherichia coli WP2uvrA assessed as number of revertant colonies measured post-treatment at 180 uM (reference value: 726.7 +/- 12.7) in absence of mammalian S9 fraction; format: functional
[12] = tested on: Salmonella typhimurium; test: Antimutagenic activity against sodium azide-induced revertant colonies in Salmonella typhimurium TA100 assessed as number of revertant colonies measured post-treatment at 9 uM (reference value: 1909 +/- 29.7) in absence of mammalian S9 fraction; format: functional, Salmonella enterica subsp. enterica serovar Typhimurium
[13] = tested on: Salmonella typhimurium; test: Antimutagenic activity against sodium azide-induced revertant colonies in Salmonella typhimurium TA100 assessed as number of revertant colonies measured cotreatment at 900 uM (reference value: 1588 +/- 55.6) in absence of mammalian S9 fraction; format: functional, Salmonella enterica subsp. enterica serovar Typhimurium
[14] = tested on: Salmonella typhimurium; test: Antimutagenic activity against sodium azide-induced revertant colonies in Salmonella typhimurium TA100 assessed as number of revertant colonies measured cotreatment at 9 uM (reference value: 1588 +/- 55.6) in absence of mammalian S9 fraction; format: functional, Salmonella enterica subsp. enterica serovar Typhimurium
[15] = tested on: Salmonella typhimurium; test: Antimutagenic activity against sodium azide-induced revertant colonies in Salmonella typhimurium TA100 assessed as number of revertant colonies measured post-treatment at 180 uM (reference value: 1909 +/- 29.7) in absence of mammalian S9 fraction; format: functional, Salmonella enterica subsp. enterica serovar Typhimurium
[16] = tested on: Salmonella typhimurium; test: Antimutagenic activity against sodium azide-induced revertant colonies in Salmonella typhimurium TA100 assessed as number of revertant colonies measured pretreatment at 9 uM (reference value: 1968 +/- 46.9) in absence of mammalian S9 fraction; format: functional, Salmonella enterica subsp. enterica serovar Typhimurium
[17] = tested on: Salmonella typhimurium; test: Antimutagenic activity against 1-nitropyrene-induced revertant colonies in Salmonella typhimurium TA98 assessed as inhibition of mutagenicity measured at 90 to 180 uM; format: functional, Salmonella enterica subsp. enterica serovar Typhimurium
[18] = tested on: Salmonella typhimurium; test: Antimutagenic activity against 2-aminoanthracene-induced revertant colonies in Salmonella typhimurium TA100 assessed as number of revertant colonies measured post-treatment at 9 uM (reference value: 642.7 +/- 2.7) in presence of mammalian S9 fraction; format: functional, Salmonella enterica subsp. enterica serovar Typhimurium
[19] = tested on: Salmonella typhimurium; test: Antimutagenic activity against sodium azide-induced revertant colonies in Salmonella typhimurium TA100 assessed as number of revertant colonies measured post-treatment at 18 uM (reference value: 1909 +/- 29.7) in absence of mammalian S9 fraction; format: functional, Salmonella enterica subsp. enterica serovar Typhimurium
[20] = tested on: Salmonella typhimurium; test: Antimutagenic activity against 1-nitropyrene-induced revertant colonies in Salmonella typhimurium TA98NR assessed as inhibition of mutagenicity measured at 900 uM; format: functional, Salmonella enterica subsp. enterica serovar Typhimurium; conditions: Salmonella enterica
[21] = tested on: Escherichia coli; test: Antimutagenic activity against methyl methansulfonate-induced revertant colonies in Escherichia coli WP2uvrA assessed as number of revertant colonies measured pretreatment at 90 uM (reference value: 466.7 +/- 40.4) in absence of mammalian S9 fraction; format: functional
[22] = tested on: Salmonella typhimurium; test: Antimutagenic activity against 2-aminoanthracene-induced revertant colonies in Salmonella typhimurium TA100 assessed as number of revertant colonies measured post-treatment at 900 uM (reference value: 642.7 +/- 2.7) in presence of mammalian S9 fraction; format: functional, Salmonella enterica subsp. enterica serovar Typhimurium
[23] = tested on: Salmonella typhimurium; test: Antimutagenic activity against 2-aminoanthracene-induced revertant colonies in Salmonella typhimurium TA100 assessed as number of revertant colonies measured pretreatment at 18 uM (reference value: 481.3 +/- 5.3) in presence of mammalian S9 fraction; format: functional, Salmonella enterica subsp. enterica serovar Typhimurium
[24] = tested on: Salmonella typhimurium; test: Antimutagenic activity against 1-nitropyrene-induced revertant colonies in Salmonella typhimurium TA98NR assessed as inhibition of mutagenicity measured at 90 to 180 uM; format: functional, Salmonella enterica subsp. enterica serovar Typhimurium
[25] = tested on: Salmonella typhimurium; test: Antimutagenic activity against sodium azide-induced revertant colonies in Salmonella typhimurium TA100 assessed as number of revertant colonies measured pretreatment at 18 uM (reference value: 1968 +/- 46.9) in absence of mammalian S9 fraction; format: functional, Salmonella enterica subsp. enterica serovar Typhimurium
[26] = tested on: Salmonella typhimurium; test: Antimutagenic activity against 2-aminoanthracene-induced revertant colonies in Salmonella typhimurium TA100 assessed as number of revertant colonies measured cotreatment at 180 uM (reference value: 457.9 +/- 16.74) in presence of mammalian S9 fraction; format: functional, Salmonella enterica subsp. enterica serovar Typhimurium
[27] = tested on: Escherichia coli; test: Antimutagenic activity against 2-aminoanthracene-induced revertant colonies in Escherichia coli WP2uvrA assessed as number of revertant colonies measured cotreatment at 18 uM (reference value: 366 +/- 10.3) in presence of mammalian S9 fraction; format: functional
[28] = tested on: Escherichia coli; test: Antimutagenic activity against 2-aminoanthracene-induced revertant colonies in Escherichia coli WP2uvrA assessed as number of revertant colonies measured pretreatment at 90 uM (reference value: 178.7 +/- 11.8) in presence of mammalian S9 fraction; format: functional
[29] = tested on: Salmonella typhimurium; test: Antimutagenic activity against 1,8-dinitropyrene-induced revertant colonies in Salmonella typhimurium TA98 assessed as inhibition of mutagenicity measured at 90 to 180 uM; format: functional, Salmonella enterica subsp. enterica serovar Typhimurium

CCCCCC/C(C=O)=C\c1ccccc1 showed an Activity [1] of 1801, an Activity [2] of 1803 and an inhibition at 900 µM [3] of over 40%. It also gave an Activity [4] of 474, an Activity [5] of 408.5 and an Activity [6] of 170.7. For the same compound, the Activity [7] was 465.3, the Activity [8] was 530.7 and the Activity [9] was 1457. It also gave an Activity [10] of 485.3, an Activity [11] of 488 and an Activity [12] of 1888. The Activity [13] was 1451, the Activity [14] was 1519 and the Activity [15] was 1771. The Activity [16] was 1877, the “inhibition (INH)” value [17] was 25% and the Activity [18] was 637.3. It also gave an Activity [19] of 1867, an inhibition at 900 µM [20] of over 40% and an Activity [21] of 436. The Activity [22] was 481.3, the Activity [23] was 453.3 and the “inhibition (INH)” value [24] was 25%. The Activity [25] was 1861, the Activity [26] was 404 and the Activity [27] was 330.7. For the same compound, the Activity [28] was 152.3 and the “inhibition (INH)” value [29] was 25%.
